The values that follow come from patent US20250346593A1, “IMIDAZO(1,2-1)PYRIDINE DERIVATIVES AS RIPK2 INHIBITORS” (Interline Therapeutics, Inc., priority 2022, published 2025).

Test [1] has as its system NF-κB pathway (SEAP) in THP1-Dual cells. Put plainly: THP-1 Dual cell SEAP assay (L18-MDP stimulated). The test is classed as cell-based. As to conditions: Homo sapiens, THP1-Dual, read-out: NFkB THP1 IC50.
Test [2] concerns the target GST-RIPK2 fusion protein (human RIPK2 amino acids 1-310) (Homo sapiens (Human), UniProt O43353). The test can be described thus: RIPK2 binding competition assay (TR-FRET, Tracer 199). (In general: In TR-FRET formats the signal depends on donor and acceptor labels being close together.)
Setting [3] is: read-out: RIPK2 IC50, RIPK2 binding competition assay.

Where two headings read alike, the source gives them in different places.

Chain of GST-RIPK2 fusion protein (human RIPK2 amino acids 1-310) (O43353 1-310): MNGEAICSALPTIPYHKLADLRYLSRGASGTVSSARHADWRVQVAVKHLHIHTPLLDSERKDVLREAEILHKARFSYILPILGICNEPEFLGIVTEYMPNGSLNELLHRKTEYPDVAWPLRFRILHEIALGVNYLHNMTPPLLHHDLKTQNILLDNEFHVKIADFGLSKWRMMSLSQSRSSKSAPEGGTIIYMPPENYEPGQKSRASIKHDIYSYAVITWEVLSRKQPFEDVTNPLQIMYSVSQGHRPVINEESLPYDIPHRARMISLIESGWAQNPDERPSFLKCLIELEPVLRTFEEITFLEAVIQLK

Broadly, the IC50 is the concentration needed to halve the response being measured. As for `COc1cc2ncc(-c3cc(F)nc(N[C@H]4C[C@H](O)C4)c3)n2cc1S(=O)(=O)C(C)(C)C` [Example 193, (1r,3r)-3-((4-(6-(tert-butylsulfonyl)-7-methoxyimidazo[1,2-a]pyridin-3-yl)-6-fluoropyridin-2-yl)amino)cyclobutan-1-ol], the IC50 in test [1] was < 50 nM; in test [2] (setting [3]), < 1 nM.
As for `COc1cc2ncc(-c3ccc(N)c(C#N)c3F)n2cc1S(=O)(=O)C(C)(C)C` [Example 91, 6-amino-3-(6-(tert-butylsulfonyl)-7-methoxyimidazo[1,2-a]pyridin-3-yl)-2-fluorobenzonitrile], the IC50 is > 1000 nM in test [1] and 2.5 to 20 nM in test [2].
On to `CNc1cc(-c2cnc3cc(OC)c(S(=O)(=O)C(C)(C)C)cn23)cc(F)n1` [Example 179, 4-(6-(tert-butylsulfonyl)-7-methoxyimidazo[1,2-a]pyridin-3-yl)-6-fluoro-N-methylpyridin-2-amine], for which the IC50 was < 50 nM in test [1] and < 1 nM in test [2] (setting [3]).
Regarding `COc1cc2ncc(-c3cc(F)nc(NCC(C)(C)O)c3)n2cc1S(=O)(=O)C(C)(C)C` [Example 224, 1-({6-fluoro-4-[7-methoxy-6-(2-methylpropane-2-sulfonyl)imidazo[1,2-a]pyridin-3-yl]pyridin-2-yl}amino)-2-methylpropan-2-ol], the IC50 was < 50 nM in test [1] and 1 to 2.5 nM in test [2].
For `COc1cc2ncc(-c3ccc(N)c(OC(F)(F)F)c3)n2cc1S(=O)(=O)C(C)(C)C` [Example 89, 4-(6-(tert-butylsulfonyl)-7-methoxyimidazo[1,2-a]pyridin-3-yl)-2-(trifluoromethoxy)aniline], in that order: > 1000 nM and 2.5 to 20 nM.
Regarding `COc1cc2ncc(-c3cccc(NCCCO)c3)n2cc1S(=O)(=O)C(C)(C)C` [Example 320, 3-((3-(6-(tert-butylsulfonyl)-7-methoxyimidazo[1,2-a]pyridin-3-yl)phenyl)amino)propan-1-ol], the IC50 in test [1] was > 1000 nM; in test [2] (setting [3]), > 20 nM.
For `COc1cc2ncc(-c3cnc(N)c(C)n3)n2cc1S(=O)(=O)C(C)(C)C` [Example 109, 5-(6-(tert-butylsulfonyl)-7-methoxyimidazo[1,2-a]pyridin-3-yl)-3-methylpyrazin-2-amine], in that order: > 1000 nM and > 20 nM.
Consider `COc1cc2ncc(-c3cc(Cl)c(N)nc3OC)n2cc1S(=O)(=O)C(C)(C)C` [Example 102, 5-(6-(tert-butylsulfonyl)-7-methoxyimidazo[1,2-a]pyridin-3-yl)-3-chloro-6-methoxypyridin-2-amine], for which the IC50 in test [1] was 250 to 1000 nM; in test [2] it was 2.5 to 20 nM.
The like results for `COc1cc2ncc(-c3cc(C#N)c(N)nc3F)n2cc1S(=O)(=O)C(C)(C)C` [Example 107, 2-amino-5-(6-(tert-butylsulfonyl)-7-methoxyimidazo[1,2-a]pyridin-3-yl)-6-fluoronicotinonitrile] were, in that order, > 1000 nM and 2.5 to 20 nM.
For `COc1cc2ncc(-c3cc(F)c(OC)c(OCCCO)c3)n2cc1S(=O)(=O)C(C)(C)C` [compound 339, 3-(5-(6-(tert-butylsulfonyl)-7-methoxyimidazo[1,2-a]pyridin-3-yl)-3-fluoro-2-methoxyphenoxy) propan-1-ol], in that order: > 1000 nM and 2.5 to 20 nM.
For the molecule `COc1ccc(-c2cnn3ccc(S(=O)(=O)C(C)(C)C)cc23)cc1N` [Example 25, 5-(5-(tert-butylsulfonyl)pyrazolo [1,5-a]pyridin-3-yl)-2-methoxyaniline], the IC50 in test [1] was > 1000 nM; in test [2] (setting [3]), > 20 nM.
Turning to `COc1cc2ncc(-c3ccc(OC(F)F)c(N)c3)n2cc1S(=O)(=O)C(C)(C)C` [Example 39, 5-(6-(tert-butylsulfonyl)-7-methoxyimidazo[1,2-a]pyridin-3-yl)-2-(difluoromethoxy)aniline], the figures for the IC50 in test [1] and in test [2] were 50 to 250 nM and 2.5 to 20 nM, respectively.
For `COc1cc2ncc(-c3cc(C#N)c(N)cc3F)n2cc1S(=O)(=O)C(C)(C)C` [Example 80, 2-amino-5-(6-(tert-butylsulfonyl)-7-methoxyimidazo[1,2-a]pyridin-3-yl)-4-fluorobenzonitrile], in that order: 250 to 1000 nM and 2.5 to 20 nM.
Take `COc1cc2ncc(-c3ccc(N4CCOCC4)nc3F)n2cc1S(=O)(=O)C(C)(C)C` [Example 101, 4-(5-(6-(tert-butylsulfonyl)-7-methoxyimidazo[1,2-a]pyridin-3-yl)-6-fluoropyridin-2-yl)morpholine]: the figures for the half-maximal inhibitory concentration (IC50) in test [1] and in test [2] (setting [3]) were > 1000 nM and > 20 nM, respectively.
In the case of `CCCS(=O)(=O)Nc1cc(OC)cc(-c2cnn3ccc(S(=O)(=O)C(C)(C)C)cc23)c1` [Example 283, N-(3-(5-(tert-butylsulfonyl)pyrazolo[1,5-a]pyridin-3-yl)-5-methoxyphenyl)propane-1-sulfonamide], the IC50 is 250 to 1000 nM in test [1] and 2.5 to 20 nM in test [2].
Consider `COc1cc2ncc(-c3cc(F)nc(N[C@H]4CCCC[C@@H]4O)c3)n2cc1S(=O)(=O)C(C)(C)C` (single isomer, unassigned) [Example 245, trans-(15,2S or 1R,2R)-2-({6-fluoro-4-[7-methoxy-6-(2-methylpropane-2-sulfonyl)imidazo[1,2-a]pyridin-3-yl]pyridin-2-yl}amino)cyclohexan-1-ol], for which the IC50 in test [1] was 250 to 1000 nM; in test [2], 2.5 to 20 nM.
For `CCCS(=O)(=O)Nc1cc(COC)cc(-c2cnc3cc(OC)c(S(=O)(=O)C(C)(C)C)cn23)c1` [Example 289, N-(3-(6-(tert-butylsulfonyl)-7-methoxyimidazo[1,2-a]pyridin-3-yl)-5-(methoxymethyl)phenyl) propane-1-sulfonamide], in that order: 250 to 1000 nM and 2.5 to 20 nM.
For `COc1cc2ncc(-c3cc(F)nc(NCCSC)c3)n2cc1S(=O)(=O)C(C)(C)C` [Example 235, 4-(6-(tert-butylsulfonyl)-7-methoxyimidazo[1,2-a]pyridin-3-yl)-6-fluoro-N-(2-(methylthio)ethyl) pyridin-2-amine], in that order: < 50 nM and 1 to 2.5 nM.
Take `COc1cc2ncc(-c3cc(N)c(F)c(OC)c3)n2cc1S(=O)(=O)C(C)(C)C` [Example 43, 5-(6-(tert-butylsulfonyl)-7-methoxyimidazo[1,2-a]pyridin-3-yl)-2-fluoro-3-methoxyaniline]: the IC50 in test [1] was in the range of 50 to 250 nM; in test [2], 2.5 to 20 nM.
In the case of `COc1cc2ncc(-c3cnc(N)c(OC)c3)n2cc1S(=O)(=O)C(C)(C)C` [Example 17, 5-(6-(tert-butylsulfonyl)-7-methoxyimidazo[1,2-a]pyridin-3-yl)-3-methoxypyridin-2-amine], the IC50 was > 1000 nM in test [1] and > 20 nM in test [2] (setting [3]).
As to `CC(C)(C)S(=O)(=O)c1ccc2ncc(-c3cc(F)nc(NCCC4(O)CCC4)c3)n2c1` [Example 171, 1-(2-((4-(6-(tert-butylsulfonyl)imidazo [1,2-a]pyridin-3-yl)-6-fluoropyridin-2-yl)amino)ethyl)cyclo-butan-1-ol], the IC50 in test [1] was < 50 nM; in test [2] it was 1 to 2.5 nM.
The like results for `COc1cc2ncc(-c3cc(F)c(N)c(N)c3F)n2cc1S(=O)(=O)C(C)(C)C` [Example 40, 4-(6-(tert-butylsulfonyl)-7-methoxyimidazo[1,2-a]pyridin-3-yl)-3,6-difluorobenzene-1,2-diamine] were, in that order, 250 to 1000 nM and 2.5 to 20 nM.
As to `COc1cc2ncc(-c3cc(N)cc(C#N)c3)n2cc1S(=O)(=O)C(C)(C)C` [Example 41, 3-amino-5-(6-(tert-butylsulfonyl)-7-methoxyimidazo[1,2-a]pyridin-3-yl)benzonitrile], the IC50 in test [1] lay in the range of 50 to 250 nM; in test [2], 2.5 to 20 nM.
Turning to `COc1cc2ncc(-c3ccc(N)nc3OC)n2cc1S(=O)(=O)C(C)(C)C` [Example 79, 5-(6-(tert-butylsulfonyl)-7-methoxyimidazo[1,2-a]pyridin-3-yl)-6-methoxypyridin-2-amine], the IC50 in test [1] is > 1000 nM; in test [2] (setting [3]) it was > 20 nM.
Regarding `COc1cc2ncc(-c3cc(C#N)c(OC)c(NS(C)(=O)=O)c3)n2cc1S(=O)(=O)C(C)(C)C` [Example 260, N-(5-(6-(tert-butylsulfonyl)-7-methoxyimidazo[1,2-a]pyridin-3-yl)-3-cyano-2-methoxyphenyl)methane-sulfonamide], the IC50 in test [1] is > 1000 nM; in test [2], 2.5 to 20 nM.
As to `COc1cc2ncc(-c3ccc(N)cc3)n2cc1S(=O)(=O)C(C)(C)C` [Example 18, 4-(6-(tert-butylsulfonyl)-7-methoxyimidazo[1,2-a]pyridin-3-yl)aniline], the half-inhibitory concentration (IC50) in test [1] was > 1000 nM; in test [2] (setting [3]) it was > 20 nM.
With `COc1cc2ncc(-c3cc(N)c(F)c(F)c3)n2cc1S(=O)(=O)C(C)(C)C` [Example 44, 5-(6-(tert-butylsulfonyl)-7-methoxyimidazo[1,2-a]pyridin-3-yl)-2,3-difluoroaniline], the IC50 is 50 to 250 nM in test [1] and 2.5 to 20 nM in test [2].
Consider `COc1cc2ncc(-c3cnc(N)cc3F)n2cc1S(=O)(=O)C(C)(C)C` [Example 21, 5-(6-(tert-butylsulfonyl)-7-methoxyimidazo[1,2-a]pyridin-3-yl)-4-fluoropyridin-2-amine], for which the IC50 in test [1] is > 1000 nM; in test [2] (setting [3]) it was > 20 nM.
Regarding `COc1cc2ncc(-c3cccc(NS(=O)(=O)C(C)(C)C)c3)n2cc1S(=O)(=O)C(C)(C)C` [Example 277, N-(3-(6-(tert-butylsulfonyl)-7-methoxyimidazo[1,2-a]pyridin-3-yl)phenyl)-2-methylpropane-2-sulfonamide], the IC50 in test [1] is < 50 nM; in test [2] it was 2.5 to 20 nM.
For `COc1cc2ncc(-c3cc(F)c(N)c(C)c3F)n2cc1S(=O)(=O)C(C)(C)C` [Example 111, 4-(6-(tert-butylsulfonyl)-7-methoxyimidazo[1,2-a]pyridin-3-yl)-3,6-difluoro-2-methylaniline], in that order: 50 to 250 nM and 1 to 2.5 nM.
